Assay results taken from patent US10369123B2, “Perk activator for the treatment of neurodegenerative diseases” (DEUTSCHES ZENTRUM FÜR NEURODEGENERATIVE ERKRANKUNGEN E.V. …, priority 2014, dated 2019).

Experiments:
LUHMES cells = assay: Identification of non-toxic, effective concentrations of PERK modulators (MTT viability, pEIF2A Western blot); format: cell-based, human; conditions: for non-toxic concentration effectively modifying EIF2A phosphorylation: LUHMES neurons, 48 h
Procedure: Nunc™ Nunclon™ Delta 6-well (for protein and mRNA) or 48-well (for cell assays) plates (Thermo Fisher Scientific, Waltham, Mass., USA) were coated with 100 μg/ml poly-L-lysine (Sigma-Aldrich, St. Louis, Mo., USA) and 5 μg/ml fibronectin (Sigma-Aldrich). […] They were then differentiated for 8 days in a medium of DMEM/F12 (Sigma-Aldrich), 1 μg/ml tetracycline, […] and 490 μg/ml dbcAMP into post-mitotic neurons with a dopaminergic phenotype (Lotharius et al. 2005). […] 20 μg of protein (unless indicated otherwise) were adjusted to equal concentrations between samples by dilution with M-PER and subsequently heated at 95° C. for 5 minutes with Roti®-Load 1 (Carl Roth). SDS-PAGE was performed using Any kD™ Mini-PROTEAN® TGX™ Gels (BioRad, Berkeley, Calif., USA) in a tris-glycine running buffer. The protein was blotted onto PVDF membrane (BioRad) at 70 V for 65 minutes on ice. The membrane was blocked with 1× Roti®-Block solution (Carl Roth) for 1 h and then incubated at 4° C. overnight under gentle shaking with the primary antibody (see Table 5) in TBS with 5% BSA (Cell Signaling Technology) and 0.05% TWEEN (Sigma-Aldrich). Thiazolyl Blue Tetrazolium […] (Sigma Aldrich) was dissolved in sterile PBS to a concentration of 5 mg/ml. […] The 48-well culture plate was then incubated at 37° C. for 1 h, the medium removed completely and frozen at −80° C. for 1 h. The plate was then thawed, 300 μl DMSO (AppliChem, Darmstadt, Germany) was added per well and the plate was shaken to ensure complete dissolution of the violet crystals. 100 μl from each well were transferred to a new 96-well plate and the absorbance was read with the FLUOstar Omega (BMG Labtech) platereader at a wavelength of 590 nm (reference wave length 630 nm). The data was analyzed using the MARS Data Analysis Software (BMG Labtech) and Prism 6.

LUHMES neurons = assay: Morphological inspection and counts of viable cells; format: cell-based, human; conditions: co-treatment with PERK activator
Procedure: Nunc™ Nunclon™ Delta 6-well (for protein and mRNA) or 48-well (for cell assays) plates (Thermo Fisher Scientific, Waltham, Mass., USA) were coated with 100 μg/ml poly-L-lysine (Sigma-Aldrich, St. Louis, Mo., USA) and 5 μg/ml fibronectin (Sigma-Aldrich). LUHMES (Lund Human Mesencephalic) cells, derived from human embryonic ventral mesencephalic cells by conditional immortalization (Tet-off v-myc over-expression) were seeded out in a concentration of 130,000 cells/cm^2 to achieve a confluence of 50%. They were then differentiated for 8 days in a medium of DMEM/F12 (Sigma-Aldrich), 1 μg/ml tetracycline, […] and 490 μg/ml dbcAMP into post-mitotic neurons with a dopaminergic phenotype (Lotharius et al. 2005).
For all experiments with annonacin, the medium was replaced during the intoxication period with new medium containing glucose levels reduced to 250 μM, i.e. the physiological concentration in the human brain.
The protection by the PERK activator against annonacin and 4R-tau protein overexpression was also evident on morphological inspection of the cells. […] Lentiviral 4R-tau overexpression had similar effects. […] Cell counts of viable cells with intact nuclear and somatic morphology were counted in randomly selected 1300×1000 sized areas in 4 biological replicates each, confirming the protective effects of Pa.

PERK = target: T1, PERK (Homo sapiens, UniProt Q9NZJ5); conditions: Stockwell et al. 2012; cited from earlier work
T1 sequence (Q9NZJ5 30-1116): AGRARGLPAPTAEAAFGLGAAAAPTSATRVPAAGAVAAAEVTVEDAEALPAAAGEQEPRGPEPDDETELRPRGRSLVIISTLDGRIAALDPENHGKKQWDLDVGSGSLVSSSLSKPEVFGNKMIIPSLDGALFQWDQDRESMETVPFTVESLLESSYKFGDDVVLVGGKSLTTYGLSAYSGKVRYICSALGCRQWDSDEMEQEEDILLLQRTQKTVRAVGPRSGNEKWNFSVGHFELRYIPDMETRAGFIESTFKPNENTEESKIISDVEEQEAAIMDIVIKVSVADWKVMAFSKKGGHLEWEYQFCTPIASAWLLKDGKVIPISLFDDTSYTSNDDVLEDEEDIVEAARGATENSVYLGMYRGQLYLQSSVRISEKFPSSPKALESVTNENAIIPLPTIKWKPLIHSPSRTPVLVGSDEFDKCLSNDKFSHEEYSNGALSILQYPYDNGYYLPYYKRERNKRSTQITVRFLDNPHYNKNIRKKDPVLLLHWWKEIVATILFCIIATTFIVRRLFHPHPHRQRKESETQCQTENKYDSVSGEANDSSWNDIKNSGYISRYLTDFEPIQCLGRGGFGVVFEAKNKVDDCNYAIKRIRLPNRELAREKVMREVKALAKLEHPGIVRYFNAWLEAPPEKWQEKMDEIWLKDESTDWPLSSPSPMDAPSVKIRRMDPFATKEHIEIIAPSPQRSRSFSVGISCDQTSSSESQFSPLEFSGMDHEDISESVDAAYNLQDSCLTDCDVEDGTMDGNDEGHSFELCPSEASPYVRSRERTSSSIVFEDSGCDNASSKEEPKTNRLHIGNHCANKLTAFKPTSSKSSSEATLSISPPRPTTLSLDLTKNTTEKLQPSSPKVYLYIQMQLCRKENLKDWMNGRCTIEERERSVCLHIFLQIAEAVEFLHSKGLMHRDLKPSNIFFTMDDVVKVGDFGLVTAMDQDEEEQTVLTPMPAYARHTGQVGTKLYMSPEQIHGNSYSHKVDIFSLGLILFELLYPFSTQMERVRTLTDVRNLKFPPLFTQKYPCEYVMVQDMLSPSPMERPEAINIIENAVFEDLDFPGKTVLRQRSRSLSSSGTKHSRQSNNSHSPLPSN

Row | SMILES | non-toxic concentration effectively modifying EIF2A phosphorylation (LUHMES cells) [nM] | doses at which detrimental effects of UPR overactivation were seen (LUHMES cells; in vitro) [µM] | number of viable cells: toxicity of annonacin and 4R-tau overexpression (LUHMES neurons) | EIF2A phosphorylation (PERK) | other arms of the UPR (PERK)
1 | Cn1cc(-c2ccc3c(c2)CCN3C(=O)Cc2cccc(C(F)(F)F)c2)c2c(N)ncnc21 [GSK2606414, reference compound] | 300 |  |  |  | 
2 | CCN(CC)CCC(=O)N1N=C(c2c(-c3ccccc3)c3cc(Br)ccc3[nH]c2=O)CC1c1ccc(Br)cc1 (stereo not drawn) [CCT020312, 6-bromo-3-[5-(4-bromo-phenyl)-1-(3-diethylamino-propionyl)-4,5-dihydro-1H-pyrazol-3-yl]-4-phenyl-1H-quinolin-2-one] | 200 | > 3 | mitigated these effects | increase | remained unaffected
